Experimental findings from patent publication US12275731B2, “Azaindole inhibitors of wild-type and mutant forms of LRRK2” (DANA-FARBER CANCER INSTITUTE, INC., priority 2018, dated 2025) are described below.

Common to all, as to assay: KinomeScan profiling
Holding throughout (assay type): binding

In assay [1] the target is T1, ALK(L1196M) (Homo sapiens, UniProt Q9UM73, L1196M).
T1 construct: purchased KinomeScan®
The following applies: read-out: % control. In a few lines: (§1)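 At 1 μM in DMSO, compounds are run through a broad 468-member kinase panel. The luminescent read-out is normalised so that vehicle gives 100% and a positive control gives 0%; any kinase falling below 35% is treated as a target.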

Assay [2] deals with WNK1 (Homo sapiens, UniProt Q9H4A3). The settings on record: WNK1, 1 μM; read-out: % control. In a few lines:
as §1

For assay [3], the target named is TNK2 (Homo sapiens, UniProt Q07912). The settings on record: TNK2, 1 μM; read-out: % control. In a few lines:
as §1

The target in assay [4] is HIPK3 (Homo sapiens, UniProt Q9H422). The following applies: HIPK3, 1 μM; read-out: % control. In a few lines:
as §1

Assay [5] addresses T2, ABL1(Q252H)-nonphosphorylated (Homo sapiens, UniProt P00519, Q252H).
T2 construct: purchased KinomeScan®
The following applies: read-out: % control. In a few lines: as §1

Assay [6] deals with T3, JNK1 (Homo sapiens, UniProt P45983).
T3 construct: purchased KinomeScan®
The settings on record: JNK1, 1 μM; read-out: % control. In a few lines:
as §1

Assay [7] deals with T4, ARK5 (Homo sapiens, UniProt O60285).
T4 construct: purchased KinomeScan®
T4 sequence (O60285 1-661): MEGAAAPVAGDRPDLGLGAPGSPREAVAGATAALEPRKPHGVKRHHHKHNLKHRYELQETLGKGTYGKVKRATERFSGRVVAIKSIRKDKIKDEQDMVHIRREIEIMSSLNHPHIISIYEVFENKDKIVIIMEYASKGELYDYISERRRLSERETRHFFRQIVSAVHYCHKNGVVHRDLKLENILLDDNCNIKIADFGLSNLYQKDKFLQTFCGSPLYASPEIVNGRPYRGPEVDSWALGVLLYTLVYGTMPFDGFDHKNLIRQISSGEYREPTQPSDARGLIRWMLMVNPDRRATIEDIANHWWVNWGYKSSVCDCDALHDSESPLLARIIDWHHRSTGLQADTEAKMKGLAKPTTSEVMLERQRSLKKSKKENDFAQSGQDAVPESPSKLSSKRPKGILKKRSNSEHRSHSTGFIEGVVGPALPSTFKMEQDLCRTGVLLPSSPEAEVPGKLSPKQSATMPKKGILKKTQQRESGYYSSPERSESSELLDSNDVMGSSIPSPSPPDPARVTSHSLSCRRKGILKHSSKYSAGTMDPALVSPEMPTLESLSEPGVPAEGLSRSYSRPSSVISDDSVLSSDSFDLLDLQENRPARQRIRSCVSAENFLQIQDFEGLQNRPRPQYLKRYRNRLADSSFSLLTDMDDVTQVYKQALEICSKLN
The settings on record: ARK5, 1 μM; read-out: % control. In a few lines:
as §1

The target of assay [8] is T5, DCAMKL3 (Homo sapiens, UniProt Q9C098).
T5 sequence (Q9C098 1-648): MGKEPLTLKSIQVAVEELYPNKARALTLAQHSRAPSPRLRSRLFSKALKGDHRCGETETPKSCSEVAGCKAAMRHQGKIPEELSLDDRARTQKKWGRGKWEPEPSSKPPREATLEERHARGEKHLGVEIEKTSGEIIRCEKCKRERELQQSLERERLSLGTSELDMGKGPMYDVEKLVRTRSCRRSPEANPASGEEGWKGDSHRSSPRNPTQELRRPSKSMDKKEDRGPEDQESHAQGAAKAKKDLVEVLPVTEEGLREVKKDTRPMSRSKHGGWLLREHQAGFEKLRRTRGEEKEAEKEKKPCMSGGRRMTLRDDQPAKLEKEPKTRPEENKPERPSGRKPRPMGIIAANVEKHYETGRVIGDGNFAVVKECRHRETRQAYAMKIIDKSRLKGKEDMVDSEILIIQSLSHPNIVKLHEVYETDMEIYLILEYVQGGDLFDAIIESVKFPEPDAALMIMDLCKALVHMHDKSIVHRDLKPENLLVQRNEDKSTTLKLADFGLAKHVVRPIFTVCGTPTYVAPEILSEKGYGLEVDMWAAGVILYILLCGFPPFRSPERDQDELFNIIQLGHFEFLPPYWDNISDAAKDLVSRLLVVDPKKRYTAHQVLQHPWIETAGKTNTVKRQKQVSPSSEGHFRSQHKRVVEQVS
The settings on record: DCAMKL3, 1 μM; read-out: % control. In a few lines: as §1

The target of assay [9] is T6, PIP5K1C (Homo sapiens, UniProt O60331).
T6 construct: purchased KinomeScan® (panel service)
The settings on record: read-out: % control. In a few lines:
as §1

In assay [10] the target is CSF1R (Homo sapiens, UniProt P07333). The settings on record: read-out: % control. In a few lines:
as §1

Assay [11] has as its target T7, BLK (Homo sapiens, UniProt P51451).
T7 construct: purchased KinomeScan®
The settings on record: read-out: % control. In a few lines:
as §1

For assay [12], the target named is T8, PIK3CA(M1043I) (Homo sapiens, UniProt P42336, M1043I).
T8 construct: purchased KinomeScan® (panel service)
The following applies: read-out: % control. In a few lines:
as §1

The target of assay [13] is T9, p38-delta (Homo sapiens, UniProt O15264).
T9 sequence (O15264 1-365): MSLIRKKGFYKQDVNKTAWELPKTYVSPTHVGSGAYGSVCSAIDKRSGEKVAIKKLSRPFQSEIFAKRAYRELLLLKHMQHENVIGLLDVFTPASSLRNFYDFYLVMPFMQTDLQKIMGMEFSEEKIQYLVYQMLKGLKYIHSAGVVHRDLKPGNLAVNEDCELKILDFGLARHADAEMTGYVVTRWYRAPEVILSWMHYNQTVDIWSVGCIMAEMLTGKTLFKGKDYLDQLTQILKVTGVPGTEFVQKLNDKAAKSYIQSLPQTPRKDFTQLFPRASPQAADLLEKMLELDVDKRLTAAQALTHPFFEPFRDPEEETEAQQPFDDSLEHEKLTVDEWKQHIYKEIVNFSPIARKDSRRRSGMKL
The following applies: read-out: % control. In a few lines:
as §1

T7 sequence (P51451 whole entry): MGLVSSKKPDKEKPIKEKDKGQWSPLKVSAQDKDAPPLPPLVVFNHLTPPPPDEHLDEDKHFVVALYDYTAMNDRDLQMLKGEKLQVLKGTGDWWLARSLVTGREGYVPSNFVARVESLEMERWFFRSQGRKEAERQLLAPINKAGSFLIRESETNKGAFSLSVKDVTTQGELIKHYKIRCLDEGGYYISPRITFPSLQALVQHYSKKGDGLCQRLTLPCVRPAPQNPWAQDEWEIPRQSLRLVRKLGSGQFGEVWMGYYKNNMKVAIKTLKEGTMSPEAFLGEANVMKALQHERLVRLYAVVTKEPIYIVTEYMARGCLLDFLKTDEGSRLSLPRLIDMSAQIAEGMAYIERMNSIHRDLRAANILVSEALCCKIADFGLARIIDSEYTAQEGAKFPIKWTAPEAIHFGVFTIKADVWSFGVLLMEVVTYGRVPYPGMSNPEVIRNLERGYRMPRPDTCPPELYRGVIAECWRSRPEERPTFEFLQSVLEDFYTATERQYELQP
T1 sequence (Q9UM73 19-1620 L1196M): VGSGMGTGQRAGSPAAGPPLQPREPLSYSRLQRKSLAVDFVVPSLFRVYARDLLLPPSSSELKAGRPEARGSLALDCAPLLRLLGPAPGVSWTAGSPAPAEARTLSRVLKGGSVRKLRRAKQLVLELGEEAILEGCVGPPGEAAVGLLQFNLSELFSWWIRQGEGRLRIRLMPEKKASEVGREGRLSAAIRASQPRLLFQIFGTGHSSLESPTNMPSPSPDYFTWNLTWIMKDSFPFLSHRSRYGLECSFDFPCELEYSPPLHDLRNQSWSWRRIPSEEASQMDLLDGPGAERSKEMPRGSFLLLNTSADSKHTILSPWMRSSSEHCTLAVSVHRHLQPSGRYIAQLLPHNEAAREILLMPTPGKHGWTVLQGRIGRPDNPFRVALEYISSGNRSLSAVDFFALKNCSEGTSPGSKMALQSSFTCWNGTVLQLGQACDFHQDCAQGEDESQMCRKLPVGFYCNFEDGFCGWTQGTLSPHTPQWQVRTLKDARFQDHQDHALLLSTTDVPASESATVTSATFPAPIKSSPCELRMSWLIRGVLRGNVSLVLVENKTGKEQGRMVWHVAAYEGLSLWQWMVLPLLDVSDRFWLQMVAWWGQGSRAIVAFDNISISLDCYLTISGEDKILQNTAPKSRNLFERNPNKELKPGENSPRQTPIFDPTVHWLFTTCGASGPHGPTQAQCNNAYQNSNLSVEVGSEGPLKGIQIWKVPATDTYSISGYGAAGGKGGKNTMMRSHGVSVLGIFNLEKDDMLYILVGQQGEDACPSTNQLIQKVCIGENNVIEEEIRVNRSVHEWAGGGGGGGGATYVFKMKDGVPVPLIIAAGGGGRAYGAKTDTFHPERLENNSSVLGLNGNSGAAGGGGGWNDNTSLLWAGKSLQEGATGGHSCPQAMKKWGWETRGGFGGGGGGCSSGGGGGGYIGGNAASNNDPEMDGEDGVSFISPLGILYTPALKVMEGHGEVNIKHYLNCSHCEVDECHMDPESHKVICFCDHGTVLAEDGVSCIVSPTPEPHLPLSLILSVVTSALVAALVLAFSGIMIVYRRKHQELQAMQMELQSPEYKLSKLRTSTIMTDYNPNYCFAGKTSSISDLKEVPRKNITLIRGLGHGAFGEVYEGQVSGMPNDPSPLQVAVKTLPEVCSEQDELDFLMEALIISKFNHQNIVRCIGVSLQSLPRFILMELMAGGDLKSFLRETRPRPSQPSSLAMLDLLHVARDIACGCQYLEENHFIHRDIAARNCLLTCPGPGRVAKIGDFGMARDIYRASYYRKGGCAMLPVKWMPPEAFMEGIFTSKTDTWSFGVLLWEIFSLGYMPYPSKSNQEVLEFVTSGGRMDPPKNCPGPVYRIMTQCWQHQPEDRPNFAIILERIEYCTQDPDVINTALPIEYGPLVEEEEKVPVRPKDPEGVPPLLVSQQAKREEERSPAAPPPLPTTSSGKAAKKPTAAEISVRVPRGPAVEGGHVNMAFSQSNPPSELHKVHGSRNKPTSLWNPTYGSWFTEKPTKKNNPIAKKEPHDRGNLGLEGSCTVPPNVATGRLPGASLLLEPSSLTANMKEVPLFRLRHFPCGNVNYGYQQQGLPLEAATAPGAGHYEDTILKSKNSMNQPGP
Chain of HIPK3 (Q9H422 whole entry): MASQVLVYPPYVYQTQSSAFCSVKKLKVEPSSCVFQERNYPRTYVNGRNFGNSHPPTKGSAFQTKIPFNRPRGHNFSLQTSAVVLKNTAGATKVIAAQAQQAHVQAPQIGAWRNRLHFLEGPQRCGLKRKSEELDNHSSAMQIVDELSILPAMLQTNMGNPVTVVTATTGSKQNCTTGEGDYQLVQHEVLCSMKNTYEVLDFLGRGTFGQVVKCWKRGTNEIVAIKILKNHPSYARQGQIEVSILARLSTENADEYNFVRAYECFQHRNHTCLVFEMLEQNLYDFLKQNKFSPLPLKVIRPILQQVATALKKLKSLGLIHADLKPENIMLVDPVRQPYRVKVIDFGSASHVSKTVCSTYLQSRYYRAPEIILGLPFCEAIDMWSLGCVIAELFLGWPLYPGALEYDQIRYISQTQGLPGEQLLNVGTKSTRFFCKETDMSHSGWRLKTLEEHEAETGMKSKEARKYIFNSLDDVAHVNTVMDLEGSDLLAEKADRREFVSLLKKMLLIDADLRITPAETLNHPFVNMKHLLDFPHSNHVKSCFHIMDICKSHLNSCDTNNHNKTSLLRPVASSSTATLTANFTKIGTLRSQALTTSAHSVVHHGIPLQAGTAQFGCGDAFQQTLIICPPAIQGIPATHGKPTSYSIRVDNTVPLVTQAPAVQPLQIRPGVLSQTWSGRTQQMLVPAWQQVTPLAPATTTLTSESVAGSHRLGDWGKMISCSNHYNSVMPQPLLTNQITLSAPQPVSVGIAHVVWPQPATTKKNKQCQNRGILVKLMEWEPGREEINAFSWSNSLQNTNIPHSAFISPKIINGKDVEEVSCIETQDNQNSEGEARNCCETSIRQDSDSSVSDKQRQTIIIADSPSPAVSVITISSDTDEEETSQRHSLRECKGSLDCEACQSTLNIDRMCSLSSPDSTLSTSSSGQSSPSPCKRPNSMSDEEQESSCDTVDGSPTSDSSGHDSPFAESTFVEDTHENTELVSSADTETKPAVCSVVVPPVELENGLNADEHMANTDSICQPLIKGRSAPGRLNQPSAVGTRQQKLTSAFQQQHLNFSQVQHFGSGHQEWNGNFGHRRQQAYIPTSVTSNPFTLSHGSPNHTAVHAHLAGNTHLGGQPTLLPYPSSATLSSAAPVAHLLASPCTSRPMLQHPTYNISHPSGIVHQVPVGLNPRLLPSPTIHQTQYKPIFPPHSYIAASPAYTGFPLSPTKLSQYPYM
T8 sequence (P42336 whole entry M1043I): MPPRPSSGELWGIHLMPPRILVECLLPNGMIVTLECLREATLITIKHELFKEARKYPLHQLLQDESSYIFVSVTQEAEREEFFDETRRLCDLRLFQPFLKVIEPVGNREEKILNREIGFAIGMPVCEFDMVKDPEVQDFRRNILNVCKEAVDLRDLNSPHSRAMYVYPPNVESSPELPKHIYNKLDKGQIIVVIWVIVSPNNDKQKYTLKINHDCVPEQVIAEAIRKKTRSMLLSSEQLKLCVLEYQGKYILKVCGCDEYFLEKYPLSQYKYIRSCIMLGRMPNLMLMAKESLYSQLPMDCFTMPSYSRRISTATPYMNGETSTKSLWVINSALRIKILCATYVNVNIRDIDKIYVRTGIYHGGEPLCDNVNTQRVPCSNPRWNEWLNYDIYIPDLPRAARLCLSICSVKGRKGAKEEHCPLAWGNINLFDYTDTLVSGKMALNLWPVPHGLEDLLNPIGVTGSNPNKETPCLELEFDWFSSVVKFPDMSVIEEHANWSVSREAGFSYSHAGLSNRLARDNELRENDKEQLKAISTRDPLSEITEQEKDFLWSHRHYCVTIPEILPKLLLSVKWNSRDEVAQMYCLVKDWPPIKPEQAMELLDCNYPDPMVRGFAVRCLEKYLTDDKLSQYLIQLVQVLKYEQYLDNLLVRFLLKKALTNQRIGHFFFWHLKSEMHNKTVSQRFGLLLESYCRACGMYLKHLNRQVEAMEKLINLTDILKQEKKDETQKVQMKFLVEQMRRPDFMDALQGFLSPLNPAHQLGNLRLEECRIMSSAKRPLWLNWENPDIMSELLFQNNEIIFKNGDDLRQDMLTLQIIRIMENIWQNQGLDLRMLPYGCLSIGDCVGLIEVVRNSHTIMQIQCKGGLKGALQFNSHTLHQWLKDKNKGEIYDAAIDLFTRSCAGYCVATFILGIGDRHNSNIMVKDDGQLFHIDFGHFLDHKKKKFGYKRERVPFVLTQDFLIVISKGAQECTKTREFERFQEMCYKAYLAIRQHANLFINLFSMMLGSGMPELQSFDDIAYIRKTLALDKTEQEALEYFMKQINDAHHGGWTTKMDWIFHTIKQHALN
T6 sequence (O60331 whole entry): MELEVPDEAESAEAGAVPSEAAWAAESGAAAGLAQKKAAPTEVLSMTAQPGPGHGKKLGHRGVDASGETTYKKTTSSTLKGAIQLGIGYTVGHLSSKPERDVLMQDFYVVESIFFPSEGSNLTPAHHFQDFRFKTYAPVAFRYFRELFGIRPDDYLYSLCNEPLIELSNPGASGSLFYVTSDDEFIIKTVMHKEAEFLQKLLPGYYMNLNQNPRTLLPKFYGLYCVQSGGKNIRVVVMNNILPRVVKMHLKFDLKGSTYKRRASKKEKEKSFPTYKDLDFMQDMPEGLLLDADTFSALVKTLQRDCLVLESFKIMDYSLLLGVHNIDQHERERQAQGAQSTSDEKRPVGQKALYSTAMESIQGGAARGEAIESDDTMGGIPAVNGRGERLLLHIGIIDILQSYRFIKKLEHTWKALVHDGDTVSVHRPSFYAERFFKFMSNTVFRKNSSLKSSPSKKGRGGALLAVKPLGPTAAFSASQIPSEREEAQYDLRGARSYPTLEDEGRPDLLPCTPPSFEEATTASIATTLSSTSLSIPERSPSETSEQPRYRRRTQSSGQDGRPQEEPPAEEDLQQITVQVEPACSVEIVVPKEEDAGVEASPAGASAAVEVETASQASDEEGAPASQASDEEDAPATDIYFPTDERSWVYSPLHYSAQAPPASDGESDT

On to `CNc1c(-c2ccc(C(=O)N3CCC(N4CCOCC4)CC3)cc2)cnc2[nH]cc(Cl)c12` [Compound 96, (4-(3-chloro-4-(methylamino)-1H-pyrrolo[2,3-b]pyridin-5-yl)phenyl)(4-morpholinopiperidin-1-yl)methanone], for which the remaining binding at 1 µM in assay [1] came to 51%; in assay [2], 80%; in [3], 94%; in assay [4] it was 79%; in assay [5], 64%; in assay [6], 0.05%. Further, the remaining binding at 1 µM in assay [7] is 64%; in [8] it was 99%; in assay [9], 49%; in assay [10] it was 73%; in assay [11] it was 100%; in [12] it was 81%. Also, the remaining binding at 1 µM in [13] turned out to be 99%.
As for `O=C(c1ccc(-c2cnc3[nH]cc(Cl)c3c2NC2CCCC2)cc1)N1CCC(N2CCOCC2)CC1` [Compound 101, (4-(3-chloro-4-(cyclopentylamino)-1H-pyrrolo[2,3-b]pyridin-5-yl)phenyl)(4-morpholinopiperidin-1-yl)methanone], the remaining binding at 1 µM in assay [1] is 94%; in [2] it was 90%; in [3], 98%; in [4], 100%; in assay [5], 92%; in assay [6], 7.1%. The remaining binding at 1 µM in assay [7] was 67%; in assay [8] it was 84%; in [9] it was 57%; in assay [10], 28%; in assay [11], 100%; in assay [12], 100%. The remaining binding at 1 µM in [13] was 94%.
`CNc1c(-c2cnn([C@H]3CCN(C(C)=O)C[C@@H]3F)c2)cnc2[nH]cc(Cl)c12` [Compound 77, 1-((3S,4S)-4-(4-(3-chloro-4-(methylamino)-1H-pyrrolo[2,3-b]pyridin-5-yl)-1H-pyrazol-1-yl)-3-fluoropiperidin-1-yl)ethan-1-one]: the remaining binding at 1 µM in assay [1] came out at 91%; in assay [2] it was 67%; in assay [3] it was 100%; in assay [4], 85%; in assay [5], 50%; in [6] it was 1.1%. For the same molecule, the remaining binding at 1 µM in [7] turned out to be 86%; in assay [8] it was 95%; in assay [9], 37%; in assay [10], 74%; in [11], 100%; in assay [12], 66%. In assay [13], the remaining binding at 1 µM was found to be 96%.
